What is called mortality is the share of the test organisms that died. In general, melting point refers to the temperature of the solid-liquid transition.

Data on 22 molecules can be found in patent US8119568B2, “3-amino-1,2-benzisothiazole compounds for combating animal pest II” (BASF SE, priority 2007, dated 2012).

Series [1] has as its system Green Peach Aphid (Myzus persicae). Kind of series: Green peach aphid (Myzus persicae) test, infested bell pepper leaves dipped in test solution. The series is classed as in vivo. The note with it: 120 h, determined after 5 days, read-out: mortality of green peach aphid in comparison with untreated controls. The method, then: (§1) If not otherwise described, the active compounds were formulated in a mixture of 50 vol.-% acetone:50 vol.-% water. A nonionic surfactant (Kinetic®) was included in the solution at a volume of 0.01% v/v.
(§2) In the following tests, the formulated solutions of the active compounds were diluted to an active ingredient concentration of 300 ppm and the diluted solutions were applied in the below mentioned tests.
Bell pepper plants at the first true-leaf stage were infested prior to treatment by placing heavily infested leaves from the main aphid colony on top of the treatment plants. The aphids were allowed to transfer overnight to accomplish an infestation of 30-40 aphids per plant and the host leaves were removed. The infested leaves of the test plants were then dipped and agitated in the test solution for 3 seconds and allowed to dry in a fume hood. Test plants were maintained under fluorescent lighting in a 24-hr photoperiod at 25° C. and 20-40% relative humidity. Mortality on the treated plants, relative to mortality on untreated check plants, was determined after 5 days.

The subject of series [2] is Cotton Aphid (Aphis gossypii). Nature of the series: Cotton aphid (Aphis gossypii) test, infested cotton cotyledons dipped in test solution. The series is classed as in vivo. The conditions noted are these: 120 h, determined after 5 days, read-out: mortality of cotton aphid (Aphis gossypii, mixed life stages) in comparison with untreated controls. The method, then:
as §1, §2
Cotton plants at the cotyledon stage were infested prior to treatment by placing a heavily infested leaf from the main aphid colony on top of each cotyledon. The aphids were allowed to transfer overnight and the host leaf was removed. The infested cotyledons were then dipped and agitated in the test solution for 3 seconds and allowed to dry in a fume hood. Test plants were maintained under fluorescent lighting in a 24-hr photoperiod at 25° C. and 20-40% relative humidity. Aphid mortality on the treated plants, relative to mortality on untreated check plants, was determined after 5 days.

In series [3] the test system is Cowpea Aphid (aphis craccivora). Kind of series: Cowpea aphid (aphis craccivora) test, colonized potted cowpea plants sprayed. It counts as in vivo. The note with it: assessed after 24, 72, and 120 hours, read-out: mortality in comparison with untreated controls (cowpea aphid). The method, then: as §2
The active compound is dissolved at the desired concentration in a mixture of 1:1 (vol:vol) distilled water:acetone. The test solution is prepared at the day of use.
Potted cowpea plants colonized with approximately 100-150 aphids of various stages were sprayed after the pest population has been recorded. Population reduction was assessed after 24, 72, and 120 hours.

Series [4] relates to Diamond Back Moth (plutella xylostella). Nature of the series: Diamond back moth (plutella xylostella) test, Chinese cabbage leaves dipped. It counts as in vivo. The note with it: 3rd instar larvae on dipped cabbage leaves, recorded 24, 72, and 120 hours after treatment, read-out: mortality in comparison with untreated controls (diamond back moth). The method, then:
as §2
The active compound is dissolved at the desired concentration in a mixture of 1:1 (vol:vol) distilled water:acteon. The test solution is prepared at the day of use.
Leaves of Chinese cabbage were dipped in test solution and air-dried. Treated cabbage leaves were placed in petri dished lined with moist filter paper and 3rd instar larvae were added. Mortality was recorded 24, 72, and 120 hours after treatment.

In series [5] the test system is Southern Armyworm (Spodoptera eridania), 2nd Instar Larvae. Nature of the series: Southern armyworm (Spodoptera eridania) test, Sieva lima bean leaves dipped. The series is classed as in vivo. The conditions noted are these: 96 h, 2nd instar larvae on dipped lima bean leaves, at 4 days, read-out: mortality in comparison with untreated controls (southern armyworm). The method, then:
as §2
The active compounds were formulated in 50:50 acetone:water (vol) and 100 ppm Kinetica™ surfactant.
A pair of first true leaves of Sieva lima bean was dipped into the test solution and allowed to dry. The leaves were then placed in a plastic perforated zip enclosure bag and ten 2nd instar larvae were added. At 4 days, observations were made of mortality and reduced feeding.

As for `CCCC(=O)N(CC)c1nsc2cccc(OC(F)F)c12` [compound 118], the mortality at 300 ppm in series [1] was no less than 89%; in series [2] it was no less than 89%; in series [3] it was greater than 89%. As to `O=C(Nc1nsc2cccc(OC(F)F)c12)c1cc(Br)nn1-c1ncccc1Cl` [compound 89], the mortality at 300 ppm in series [2] was no less than 89%. Consider `Cc1cccc2snc(NC(=O)c3cc(C(F)(F)F)nn3-c3ncccc3Cl)c12` [compound 113], for which the mortality at 300 ppm in series [4] and in series [5] was greater than 89% each time. For the molecule `COc1cccc2snc(N(C)C(=O)c3cnccc3C(F)(F)F)c12` [compound 105], the mortality at 300 ppm in series [4] is greater than 89%; in series [2], no less than 89%; in series [3], greater than 89%. With `CCN(C(=O)c1cc(C(F)(F)F)nn1-c1ncccc1Cl)c1nsc2cccc(OC(F)F)c12` [compound 81], the mortality at 300 ppm in series [3] is greater than 89%. With `CN(C(=O)c1ccc(C(F)(F)F)nc1)c1nsc2cccc(Cl)c12` [compound 108], the mortality at 300 ppm in series [2] is no less than 89%; in series [3], greater than 89%.

`CN(C(=O)c1cc(Br)nn1-c1ncccc1Cl)c1nsc2cccc(OC(F)F)c12` [compound 92]: in series [2], the mortality at 300 ppm was no less than 89%.

The molecule `CCN(C(=O)C(F)(F)F)c1nsc2cccc(OC(F)F)c12` [Compound example 26, N-(4-Difluoromethoxy-benzo[d]isothiazol-3-yl)-N-ethyl-2,2,2-trifluoro-acetamide] had a melting point of 176 to 177 °C. `COCC(=O)N(C)c1nsc2cccc(Cl)c12` [compound 87]: the results for the mortality at 300 ppm in series [1], in series [2] and in series [3] were no less than 89%, no less than 89% and greater than 89%, respectively. As to `CCN(C(=O)c1ccc(Cl)nc1)c1nsc2cccc(OC(F)F)c12` [compound 83], the mortality at 300 ppm in series [1] is no less than 89%.

Regarding `COc1cccc2snc(N=S(C)C)c12` [compound 125], the mortality at 300 ppm in series [1] and in series [2] was no less than 89% each time. As to `CN(C(=O)c1cnccc1C(F)(F)F)c1nsc2cccc(OC(F)F)c12` [compound 91], in series [2], the mortality at 300 ppm was no less than 89%.

For `O=C(Nc1nsc2cccc(Cl)c12)c1cc(Br)nn1-c1ncccc1Cl` [compound 74], the mortality at 300 ppm in series [5] is greater than 89%. Still for that read-out and setting: with `O=C(Nc1nsc2cccc(Cl)c12)c1cc(C(F)(F)F)nn1-c1ncccc1Cl` [compound 75] the figure was greater than 89%.

Regarding `CN(C(=O)c1ccc(Cl)nc1)c1nsc2cccc(OC(F)F)c12` [compound 82], the mortality at 300 ppm is no less than 89% in series [1] and greater than 89% in series [3].

On to `COc1cccc2snc(N(C)C(=O)c3cc(Br)nn3-c3ncccc3Cl)c12` [compound 94], for which the mortality at 300 ppm was no less than 89% in series [2] and greater than 89% in series [3]. As for `O=C(Nc1nsc2cccc(Cl)c12)c1ccc(C(F)(F)F)nc1Cl` [compound 115], the mortality at 300 ppm in series [2] was no less than 89%. On to `CCN(C(=O)COC)c1nsc2cccc(OC(F)F)c12` [compound 77], for which the figures for the mortality at 300 ppm in series [1] and in series [3] were no less than 89% and greater than 89%, respectively. The corresponding values for `COCC(=O)N(C)c1nsc2cccc(OC(F)F)c12` [compound 76] are no less than 89% and greater than 89%. Consider `CCN(C(=O)c1cc(C(F)(F)F)nn1-c1ncccc1Cl)c1nsc2cccc(OC)c12` [compound 86], for which, in series [2], the mortality at 300 ppm is no less than 89%. On to `CN(C(=O)c1cnccc1C(F)(F)F)c1nsc2cccc(Cl)c12` [compound 106], for which the mortality at 300 ppm in series [2] is no less than 89%; in series [3], greater than 89%.

Take `CC(=O)N(C)c1nsc2cccc(OC(F)F)c12` [compound 25]: the mortality at 300 ppm in series [1] was no less than 89%.
